In patent US7407940B2, “Antimicrobial hexapeptides” (Helix BioMedix Inc., priority 2005, dated 2008):
Like-named read-outs stand apart in the source and are kept apart here. Where a SMILES comes first, the peptide text is derived from it. Where no end group is shown, it is not given here. [ ]: non-standard residue; d: D form. The star is where a group is joined. 2Nal = N[C@@H](Cc1ccc2ccccc2c1)C(=O)O; Lauroyl = CCCCCCCCCCCC(=O)*; code J = not defined here; Octanoyl = CCCCCCCC(=O)*

Assays:
[1] = parameters: species or system Sprague-Dawley rats; settings: rat, in vivo
Excerpt: Each wound observed at each dressing change and the wound surface and tissue reaction assessed. There were 5 parameters of wound status that were checked: • i. Wound Film Security—Was the adhesive film used to cover the wound still completely adherent to the skin around the wound? • ii. Wound Surface—What was the exact visual appearance of the wound surface? • iii. Amount of Exudate—How much exudate was trapped under the film? In many cases, accumulated exudate causes the film to lose adherence and the exudates will escape. • iv. Severity of Tissue Reaction—A subjective rating of extent of tissue reaction on a scale of 1 (minimal), 2 (moderate), 3 (extensive). • v. % of Tissue Involved—In some situations, the wound surface contained denatures, friable tissue that could be wiped off with pressure applied to gauze. This test was used to better differentiate denatured tissue from viscous exudates.

P. aeruginosa = assay type: cell-based; settings: combined with polymyxin B
Procedure: (§1) The fractional inhibitory concentration (FIC) index was used to determine the synergy between antimicrobial agents. Peptide MICs against test microorganisms were determined three times on separate occasions. […]

P. acnes = test: Activity against extended panel of P. acnes; assay type: cell-based; parameters: unit not given here
Excerpt: A very promising application for short bioactive peptides is for dermatological indications such as acne.

Pseudomonas aeruginosa = assay type: cell-based; parameters: MIC, lipid length SAR: unit not given here; settings: P.aeruginosa
Procedure: (§2) MICs (minimal inhibitory concentrations) were determined for the hexapeptides of interest using a slightly modified version of the NCCLS (National Committee for Clinical Laboratory Standards) broth microdilution method as described previously (Steinberg et al., AAC 41: 1738, 1997). Briefly, antimicrobial agents were prepared as 10× concentrates in the most appropriate solvent. For the hexapeptide, 0.01% acetic acid containing 0.2% bovine serum albumin as a carrier protein was used. Inocula were prepared by resuspending colonies from a BAP (please spell out this term) in medium and adjusting the suspension to match that of a 0.5 McFarland standard. The suspension was diluted into fresh medium (as recommended by NCCLS for the organism) to give 2×10^5 to 7×10^5 CFU/ml for bacteria or 2×10^3 to 7×10^3 CFU/ml for Candida. After dispensing 100 μl aliquots of the microbial suspension into each well of a 96-well polypropylene microtiter plate, 11 μl of test compound was added. The MIC was defined as the lowest concentration of drug which prevented visible turbidity after 16 to 20 hours (bacteria) or 46 to 50 hours (Candida) at 35° C.

MRSA = test: Kill curve in 10% sheep serum-phosphate buffer against MRSA; assay type: cell-based, S. aureus; parameters: MRSA count in kill curve: unit not given here
S. aureus MRSA = test: Kill kinetics in lipid (liposome) environment with or without serum; assay type: cell-based; settings: peptide 0.5 mg/ml; liposomes, presence or absence of serum
Excerpt: Referring to FIG. 8, not only does lipidation improve the activity of hexapeptides in serum it improves activity in a lipid environment which is a mimic of the human acne lesion environment. The human sebaceous gland secretion, also called sebum, contains squalene, cholesterol, cholesterol esters, wax esters, and triglycerides in which a large […] of P. acnes appears to take advantage of this environment and hydrolyzes certain sebaceous lipids. The pre-pubertal and pubertal increase in sebum secretion is almost certainly involved in the pathogenesis of adolescent acne. The activity of SEQ ID NO: 55 was studied in this environment compared to P64(SEQ ID NO:90), a traditional cationic antimicrobial peptide. Due to the fact that most lipids are water insoluble, peptide-liposomes composed of phosphatidylcholine, phosphatidylglycerol and cholesterol in the molar ratio of 7:2:1 in saline were used and kill kinetics of the peptides were assessed in the presence or absence of serum.

S. epidermidis ATCC12228 = test: MIC, broth microdilution, S. epidermidis; assay type: cell-based; parameters: unit not given beside the values; settings: #86: S. epidermidis ATCC12228
Procedure: as §2

[2] = system: azole resistant strains of C. albicans; assay type: cell-based; parameters: MIC-SEQ ID NO: 55 + azole, peptide part / MIC-SEQ ID NO: 55 + azole, azole part: unit not given beside the values; settings: in combination with clotrimazole
Procedure: as §1
All strains are azole resistant clinical isolates from Prof. Ted White (Seattle Biotechnology Research Institute, Seattle)

[3] = system: Salmonella typhimurium 14028S; test: MIC, broth microdilution, S. typhimurium; assay type: cell-based; parameters: unit not given here; settings: S.typhimurium
Procedure: as §2

Trychophyton rubrum = test: MIC100 against dermatophyte Trychophyton rubrum; assay type: cell-based; settings: T. rubrum; at 10 days
Procedure: (§3) In order to compare the activity of various antimicrobial peptides, including hexapeptide SEQ ID NO:1 (P0666), MIC were determined against the dermatophytes Trychophyton rubrum and Trychophyton mentagrophytes. The concentration of samples investigated were: 2000, 1000, 500, 250 and 125 μg/ml, respectively. The medium used was modified Sabouraud's media without agar. For a 100 mL of modified Sabouraud medium: 3 g of Sabouraud's dextrose broth (Difco) was mixed into 100 mL of deionized water. The pH was adjusted to 7.0 with 0.1 N NaOH. The solution was autoclaved for thirty minutes. 940 μL of medium was poured into sterile 20 mL test tubes with plastic caps and was allowed to cool.
(§4) 50 μL of […] was added to each 20 mL test tube to make the required concentration. A control tube was composed of 50 μL of saline without sample. For the MIC experiments,
(§5) 10 μL of organism suspended in saline was added to the each 20 mL test tube and vortexed slightly. Each of the test tubes was covered in parafilm and maintained on a shaker at 27° C. at a speed of approximately 100 rpm.
(§6) The growth/inhibition of the organism was observed on a daily basis. […] The Minimum Inhibition Concentration (MIC100) for compounds F1 to F10 against fungus Trychophyton rubrum and Trychophyton mentagrophytes at 10 days.

[4] = system: Trychophyton mentagrophytes; test: MIC100 against dermatophyte Trychophyton mentagrophytes; assay type: cell-based; settings: T. mentagrophytes; at 10 days
Procedure: as §3, §4, §5, §6

Lipoteichoic acid (LTA) = test: LTA binding assay; settings: FIG. 7
Excerpt: Lipoteichoic acid (LTA) is a common cell wall component of gram-positive bacteria including organisms such as S. aureus and P. acnes. The release of LTA during infection can lead to the release of mediators of the host inflammatory response which in turn can result in sepsis (septic shock). For example, when injected into animals, LTA can elicit many of the characteristic features of septic shock, including cytokine production, leukocytopenia, circulatory failure, multiple-organ dysfunction syndrome, and mortality.

## CCCCCCCC(=O)N[C@@H](CCCCN)C(=O)N[C@@H](Cc1ccccc1)C(=O)N[C@@H](CCCCN)C(=O)N[C@@H](Cc1c[nH]c2ccccc12)C(=O)N1CCC[C@H]1C(=O)N[C@@H](Cc1c[nH]c2ccccc12)C(N)=O [SEQ ID NO: 55 (P-1032)] (Octanoyl-KFKWPW-NH2)
[1]
  Tissue reaction severity: 1

## CCCCCCCC(=O)N[C@@H](CCCCN)C(=O)N[C@@H](Cc1ccccc1)C(=O)N[C@@H](CCCCN)C(=O)N[C@@H](Cc1c[nH]c2ccccc12)C(=O)N1CCC[C@H]1C(=O)N[C@@H](Cc1c[nH]c2ccccc12)C(N)=O [SEQ ID NO: 55, OCT-KFKWPW-NH2] (Octanoyl-KFKWPW-NH2)
P. aeruginosa; P. aeruginosa 100609
  MIC-NO: 55 combined: 2 µg/mL
P. aeruginosa; P. aeruginosa H187
  MIC-NO: 55 combined: 8 µg/mL
P. aeruginosa; P. aeruginosa H401
  MIC-NO: 55 combined: 2 µg/mL
P. aeruginosa; P. aeruginosa M917
  MIC-NO: 55 combined: 16 µg/mL
P. acnes; ATCC 6921
  Activity (MIC) against P. acnes: 4
P. acnes; ATCC 6922
  Activity (MIC) against P. acnes: 8
P. acnes; ATCC 6923
  Activity (MIC) against P. acnes: 8
P. acnes; ATCC 11828
  Activity (MIC) against P. acnes: 8
P. acnes; ATCC 12930
  Activity (MIC) against P. acnes: 8
P. acnes; ATCC 25746
  Activity (MIC) against P. acnes: 1
P. acnes; ATCC 29399
  Activity (MIC) against P. acnes: 16
P. acnes; ATCC 33179
  Activity (MIC) against P. acnes: 16
P. acnes; ATCC 49929
  Activity (MIC) against P. acnes: 0.125
P. acnes; ATCC 51277
  Activity (MIC) against P. acnes: 4
Pseudomonas aeruginosa
  MIC, lipid length SAR: 32
MRSA; buffer, 1 mg/ml, 30 min
  MRSA count in kill curve: 100
MRSA; buffer, 1 mg/ml, 1 hour
  MRSA count in kill curve: 100
MRSA; buffer, 1 mg/ml, 2 hours
  MRSA count in kill curve: 10
MRSA; buffer, 1 mg/ml, 3 hours
  MRSA count in kill curve: 10
MRSA; buffer, 1 mg/ml, 4 hours
  MRSA count in kill curve: 10
MRSA; buffer, 1 mg/ml, 5 hours
  MRSA count in kill curve: 10
MRSA; serum, 0.5 mg/ml, 30 min
  MRSA count in kill curve: 10
MRSA; serum, 0.5 mg/ml, 1 hour
  MRSA count in kill curve: 10
MRSA; serum, 0.5 mg/ml, 2 hours
  MRSA count in kill curve: 10
MRSA; serum, 0.5 mg/ml, 3 hours
  MRSA count in kill curve: 10
MRSA; serum, 0.5 mg/ml, 4 hours
  MRSA count in kill curve: 10
MRSA; serum, 0.5 mg/ml, 5 hours
  MRSA count in kill curve: 10
MRSA; serum, 1 mg/ml, 30 min
  MRSA count in kill curve: 3900
MRSA; serum, 1 mg/ml, 1 hour
  MRSA count in kill curve: 1100
MRSA; serum, 1 mg/ml, 2 hours
  MRSA count in kill curve: 100
MRSA; serum, 1 mg/ml, 3 hours
  MRSA count in kill curve: 30
MRSA; serum, 1 mg/ml, 4 hours
  MRSA count in kill curve: 20
MRSA; serum, 1 mg/ml, 5 hours
  MRSA count in kill curve: 60
MRSA; serum, 2 mg/ml, 30 min
  MRSA count in kill curve: 1000000
MRSA; serum, 2 mg/ml, 1 hour
  MRSA count in kill curve: 1000000
MRSA; serum, 2 mg/ml, 2 hours
  MRSA count in kill curve: 1000000
MRSA; serum, 2 mg/ml, 3 hours
  MRSA count in kill curve: 1000000
MRSA; serum, 2 mg/ml, 4 hours
  MRSA count in kill curve: 1000000
MRSA; serum, 2 mg/ml, 5 hours
  MRSA count in kill curve: 1000000
S. aureus MRSA
  kill kinetics in lipid environment (in words): shown to be effective
S. epidermidis ATCC12228
  MIC: 8
[2]; C. albicans #185
  MIC-SEQ ID NO: 55 + azole, peptide part: 16
[2]; C. albicans #186
  MIC-SEQ ID NO: 55 + azole, peptide part: 2
[2]; C. albicans #187
  MIC-SEQ ID NO: 55 + azole, peptide part: 4
[2]; C. albicans #192
  MIC-SEQ ID NO: 55 + azole, peptide part: 4
[2]; C. albicans #196
  MIC-SEQ ID NO: 55 + azole, peptide part: 4
[2]; C. albicans #199
  MIC-SEQ ID NO: 55 + azole, peptide part: 4
[3]
  MIC, lipid length SAR: 32

## CC(C)C[C@H](NC(=O)[C@H](C)NC(=O)[C@H](CC(C)C)NC(=O)[C@H](CCCCN)NC(=O)[C@H](C)NC(=O)[C@H](CC(C)C)NC(=O)[C@H](CCCCN)NC(=O)[C@H](CCCCN)NC(=O)[C@H](C)NC(=O)[C@H](CC(C)C)NC(=O)[C@H](CCCCN)NC(=O)[C@H](C)NC(=O)[C@H](CC(C)C)NC(=O)[C@H](CCCCN)NC(=O)[C@H](CCCCN)NC(=O)[C@H](C)NC(=O)[C@@H](N)C(C)C)C(N)=O [SEQ ID NO: 88, VAKKLAKLAKKLAKLAL-NH2]
[1]
  Amount of exudate: S/y
  tissue reaction (in words): mild to moderate

## FAKALKALLKALKAL-NH2 [SEQ ID NO: 90]
Trychophyton rubrum
  MIC100: 1000 µg/mL
[4]
  MIC100: 500 µg/mL
S. aureus MRSA
  kill kinetics in lipid environment (in words): shown to be effective

## KWKWJW-NH2 (KWKW[code J]W-NH2; reading uncertain; also: printed as KWKWJW-NH2) [SEQ ID NO: 60]
S. epidermidis ATCC12228
  MIC: >128

## KWKWZW-NH2 (KWKW[2Nal]W-NH2) [SEQ ID NO: 63]
S. epidermidis ATCC12228
  MIC: 2

## OCT-KWKWFW-NH2 (Octanoyl-KWKWFW-NH2; SMILES CCCCCCCC(=O)N[C@@H](CCCCN)C(=O)N[C@@H](Cc1c[nH]c2ccccc12)C(=O)N[C@@H](CCCCN)C(=O)N[C@@H](Cc1c[nH]c2ccccc12)C(=O)N[C@@H](Cc1ccccc1)C(=O)N[C@@H](Cc1c[nH]c2ccccc12)C(N)=O) [SEQ ID NO: 56]
S. epidermidis ATCC12228
  MIC: 4

## SEQ ID NO:72 (Lauroyl-KFKWPW-NH2; SMILES CCCCCCCCCCCC(=O)N[C@@H](CCCCN)C(=O)N[C@@H](Cc1ccccc1)C(=O)N[C@@H](CCCCN)C(=O)N[C@@H](Cc1c[nH]c2ccccc12)C(=O)N1CCC[C@H]1C(=O)N[C@@H](Cc1c[nH]c2ccccc12)C(N)=O)
Lipoteichoic acid (LTA)
  LTA binding (in words): binds LTA to the same degree as a typical highly charged alpha-helical amphipathic peptide

## SEQ ID NO:83 (Lauroyl-[dK][dF][dK][dW][dP][dW]-NH2; SMILES CCCCCCCCCCCC(=O)N[C@H](CCCCN)C(=O)N[C@H](Cc1ccccc1)C(=O)N[C@H](CCCCN)C(=O)N[C@H](Cc1c[nH]c2ccccc12)C(=O)N1CCC[C@@H]1C(=O)N[C@H](Cc1c[nH]c2ccccc12)C(N)=O)
Lipoteichoic acid (LTA)
  LTA binding (in words): fail to bind LTA
